Consider eight compounds from patent US20250084041A1, “ANTIMICROBIAL COMPOUNDS AND METHODS” (Curza Global, LLC, priority 2021, published 2025).

Where a name gives a salt, the structure may show the parent alone. Read-outs that look alike come from different tables or passages of the source.

The test system of one test is S. aureus (Sa). As to the kind of experiment: Broth microdilution MIC, S. aureus. In kind it is cell-based. The settings on record: Staphylococcus aureus, read-out: Sa + bicarb 25 (MIC). The method, then: (§1) A certified BSL-2 laboratory was used for testing. Compounds were evaluated using the broth microdilution minimum inhibitory concentration (MIC) and minimum bactericidal concentration (MBC) assays defined by Clinical and Laboratory Standards Institute (CLSI) in the M26-A guideline against S. aureus (Sa), E. coli (Ec), K. pneumoniae (Kp), A. baumannii (Ab), E. faecalis (Ef) and P. aeruginosa (Pa).
(§2) MICs were determined using the Clinical Laboratory and Standards Institute (CLSI) Broth Microdilution Method with slight modification. Clinical and Laboratory Standards Institute (2012). “Methods for dilution antimicrobial susceptibility tests for bacteria that grow aerobically; approved standard, 9th ed. M07-A9. Clinical and Laboratory Standards Institute, Wayne, PA.” Serial two-fold dilutions of compounds are prepared in sterile clear round-bottom 96-well plates.
(§3) To prepare microdilution trays, two-fold dilutions of antimicrobial agent are prepared in growth medium: Cation-Adjusted Mueller-Hinton Broth (CAMHB), or CAMHB supplemented with sodium bicarbonate (25 mM final concentration prepared from a 1.0 M stock solution) or CAMHB supplemented with heat inactivated human serum (Fisher Cat. #BP2657100) 0-50% by adding 200 μL of the highest concentration to be tested (64 μg/mL, for example) in row A, mixing and transferring 100 μL from row A to 100 μL growth medium in row B, then repeating the mixing and transferring through row H of the 96-well plate, discarding the excess 100 μL remaining. This slight modification to the CLSI protocol enables evaluation of MICs for 3 compounds per plate in triplicate, albeit with only 8 compound dilutions (CLSI protocol enables 2 compounds in triplicate with 10 dilutions). Bacterial suspensions are added to a final concentration of 5×10^4 CFU/well by adding 5 μL of a 1:10 dilution of a 0.5 McFarland suspension (1×10^8 CFU/mL) for each bacterium evaluated. Bacterial suspensions were prepared using the growth method described by CLSI. Well-isolated colonies (3-5 from an agar plate) were selected using a sterile loop and used to inoculate a tube containing 4 mL of CAMHB. The cultures are incubated at 35±2° C. until it achieves or exceeds the turbidity of the 0.5 McFarland standard, determined by measuring A600nm (usually two to six hours). When growth exceeds a 0.5 McFarland standard, the turbidity is adjusted with broth to be equivalent to a 0.5 McFarland standard.
A general note: Broth dilution looks for growth in wells or tubes with falling amounts of substance.

Another test relates to E. coli (Ec). Put plainly: Broth microdilution MIC, E. coli. In kind it is cell-based. As to conditions: Escherichia coli, read-out: E. coli + bicarb 25 (MIC). The method, then: as §1, §2, §3
A further test relates to P. aeruginosa (Pa). Put plainly: Broth microdilution MIC, P. aeruginosa. In kind it is cell-based. The settings on record: Pseudomonas aeruginosa, read-out: Pa + bicarb 25 (MIC). The method, then: as §1, §2, §3
In another test the test system is A. baumannii (Ab). Put plainly: Broth microdilution MIC, A. baumannii. It counts as cell-based. The settings on record: Acinetobacter baumannii, read-out: Ab + bicarb 25 (MIC). The method, then: as §1, §2, §3
The test system of a further test is E. faecalis (Ef). Put plainly: Broth microdilution MIC, E. faecalis. As to conditions: Enterococcus faecalis, read-out: Ef + bicarb 25 (MIC). It counts as cell-based. The method, then: as §1, §2, §3
The subject of another test is E. coli S30 extract. Put plainly: E. coli S30 extract: inhibition of bacterial protein synthesis (luciferase). It counts as biochemical. The settings on record: 37° C. 1 hour. How it is done: E. coli S30 extract: Inhibition of bacterial protein synthesis was determined using the E. coli S30 Extract System for Circular DNA (Promega catalog #L-2010) and Luciferase Assay Reagent (Promega catalog #E1500) with slight modifications to a published protocol. Fyfe, C., Sutcliffe, J. A. and Grossman, T. H. (2012) “Development and characterization of a Pseudomonas aeruginosa in vitro coupled transcription-translation assay system for evaluation of translation inhibitors” J. Microbiol. Methods 90(3), 256-261.
Compounds were serial diluted in 0.5 mL microcentrifuge tubes by mixing and transferring 50 μL from the highest concentration to 50 μL of water, mixing and transferring 50 μL of this 2-fold dilution to 50 μL of water. This mixing and transferring was repeated so that there are a total of 8 tubes with serial dilutions of compound at 10× the desired screening concentration that are ultimately diluted to 1× by the addition of S30 luciferase synthesis mixture. Serial dilutions of compounds were added (2 μL) to wells in a black round bottom 96-well plate. Water (2 μL) was used as a “no inhibitor” control in 4 wells/plate. No DNA control reaction mixture (20 μL; see below) was used as a control in 4 wells/plate for background luminescence. S30 luciferase synthesis mixture (18 μL; see below) was added to wells with compounds or water mixture and incubated at 37° C. for 1 hour. Reactions were stopped by transferring to 4° C. refrigerator for 5 minutes then 25 μL of luciferase activity mix was added. Luminescence was measured using a BioTek Synergy HTX plate reader. % Inhibition was determined relative to no inhibitor controls.
• 445 μL S30 extract, circular • 712 μL S30 Premix without amino acids • 4.45 μL pBESTluc™ DNA (1 μg/μL) • 78 μL complete amino acid mixture • 267 μL water
• 20 μL S30 extract, circular • 32 μL S30 Premix without amino acids • 7 μL complete amino acid mixture • 21 μL water

The target in test [1] is Rabbit Reticulocyte Lysate. As to the kind of experiment: Rabbit Reticulocyte Lysate: inhibition of eukaryotic protein synthesis (luciferase). It counts as biochemical. The settings on record: 30° C. 90 minutes, read-out: Retic. IC50. How it is done:
Inhibition of eukaryotic protein synthesis was determined using the Rabbit Reticulocyte Lysate System, Nuclease-Treated from Promega (catalog #L-4960) with slight modifications to the manufacturer's protocol. Compounds were serial diluted in 0.5 mL microcentrifuge tubes by mixing and transferring 50 μL from the highest concentration to 50 μL of water, mixing and transferring 50 μL of this 2-fold dilution to 50 μL of water. This mixing and transferring was repeated so that there are a total of 8 tubes with serial dilutions of compound at 10× the desired screening concentration that are ultimately diluted to 1× by the addition of rabbit reticulocyte luciferase synthesis mixture. Serial dilutions of compounds were added ([…]) to wells in a black round bottom 96-well plate. Water (2.5 μL) was used as a “no inhibitor” control in 4 wells/plate. No RNA control reaction mixture ([…]; see below) was used as a control in 4 wells/plate for background luminescence. Rabbit reticulocyte luciferase synthesis mixture (22.5 μL; see below) was added to wells with compounds or water mixture and incubated at 30° C. for 90 minutes. Luciferase assay reagent (25 μL) was added with luminescence measured using a BioTek Synergy HTX plate reader. % Inhibition was determined relative to no inhibitor controls.
• 1,000 μL rabbit reticulocyte lysate • 5.7 μL Luciferase Control RNA (1 μg/μL) • 26 μL complete amino acid mixture • 395 μL water
• 70 μL rabbit reticulocyte lysate • 2 μL complete amino acid mixture • 28 μL water

[2] abbreviates: S. aureus, CAMHB supplemented with sodium bicarbonate 25 mM.
[3] abbreviates: E. coli, CAMHB supplemented with sodium bicarbonate 25 mM.
The mark [4] stands for this setting: P. aeruginosa, CAMHB supplemented with sodium bicarbonate 25 mM.
Setting [5] is: A. baumannii, CAMHB supplemented with sodium bicarbonate 25 mM.
The mark [6] stands for this setting: E. faecalis, CAMHB supplemented with sodium bicarbonate 25 mM.

The MIC is the lowest concentration that inhibits growth of the organism. The IC50 is the concentration that inhibits the measured activity by half. For the compound `CC(C)(N)C(=O)N1CCN(C(=O)Nc2ccn(C3CCC(CN[C@H]4CC[C@H](N)CC4)CC3)c(=O)n2)CC1` (mixture of isomers) [Compound 11, 4-(2-Amino-2-methylpropanoyl)-N-(1-(4-(((trans-4-aminocyclohexyl)amino)methyl)cyclohexyl)-2-oxo-1,2-dihydropyrimidin-4-yl)piperazine-1-carboxamide hydrochloride salt], the minimal inhibitory concentration (MIC) in the test on S. aureus (Sa) is under 8 mg/L; in the test on E. coli (Ec), under 8 mg/L; with P. aeruginosa (Pa), over 32 mg/L; with A. baumannii (Ab), over 32 mg/L; in the test on E. faecalis (Ef), under 8 mg/L. The IC50 in the test with E. coli S30 extract was under 0.5 µM; in test [1], at least 1 µM.
For `CN(CC1CC=C(n2ccc(NC(=O)N3CCN(C(=O)C(C)(C)N)CC3)nc2=O)CC1)[C@H]1CC[C@H](N)CC1` (single isomer, unassigned) [Compound 32, trans-4-(2-Amino-2-methylpropanoyl)-N-(1-(4-(((4-aminocyclohexyl)(methyl)amino)methyl)cyclohex-1-en-1-yl)-2-oxo-1,2-dihydropyrimidin-4-yl)piperazine-1-carboxamide hydrochloride salt], the minimum inhibitory concentration (MIC) was under 8 mg/L with S. aureus (Sa); under 8 mg/L with E. coli (Ec); over 32 mg/L in the test with P. aeruginosa (Pa); over 32 mg/L with A. baumannii (Ab); 8 to 32 mg/L with E. faecalis (Ef). Besides, the IC50 in the test with E. coli S30 extract is under 0.5 µM; in test [1] it was at least 1 µM.
As to `CC(C)(N)C(=O)N1CCN(C(=O)Nc2ccn(C3=CCC(CN4C[C@@H]5[C@@H](N)[C@@H]5C4)CC3)c(=O)n2)CC1` (single isomer, unassigned) [Compound 33, 4-(2-Amino-2-methylpropanoyl)-N-(1-(4-(((exo)-6-amino-3-azabicyclo[3.1.0]hexan-3-yl)methyl)cyclohex-1-en-1-yl)-2-oxo-1,2-dihydropyrimidin-4-yl)piperazine-1-carboxamide hydrochloride salt], the minimum inhibitory concentration (MIC) with S. aureus (Sa) (setting [2]) is under 8 mg/L; in the test with E. coli (Ec) (setting [3]) it was under 8 mg/L; in the test on P. aeruginosa (Pa) (setting [4]), over 32 mg/L; with A. baumannii (Ab) (setting [5]), 8 to 32 mg/L; with E. faecalis (Ef) (setting [6]), under 8 mg/L. The concentration for half-maximal inhibition (IC50) with E. coli S30 extract is under 0.5 µM; in test [1], at least 1 µM.
As for `CC(C)(N)C(=O)N1CCN(C(=O)Nc2ccn(C3=CCC(CN4CCC5(CC4)CC(N)C5)CC3)c(=O)n2)CC1` (single isomer, unassigned) [Compound 36], the MIC with S. aureus (Sa) (setting [2]) was under 8 mg/L; in the test with E. coli (Ec) (setting [3]), under 8 mg/L; in the test on P. aeruginosa (Pa) (setting [4]) it was 8 to 32 mg/L; in the test with A. baumannii (Ab) (setting [5]), 8 to 32 mg/L; in the test on E. faecalis (Ef) (setting [6]), under 8 mg/L. For the same compound, the 50% inhibitory concentration (IC50) was under 0.5 µM in the test with E. coli S30 extract and at least 1 µM in test [1].
In the case of `CC1(N)CCN(CC2CC=C(n3ccc(NC(=O)N4CCN(C(=O)C(C)(C)N)CC4)nc3=O)CC2)CC1` (single isomer, unassigned) [Compound 37, 4-(2-Amino-2-methylpropanoyl)-N-(1-(4-((4-amino-4-methylpiperidin-1-yl)methyl)cyclohex-1-en-1-yl)-2-oxo-1,2-dihydropyrimidin-4-yl)piperazine-1-carboxamide hydrochloride salt], the MIC is under 8 mg/L in the test with S. aureus (Sa); under 8 mg/L in the test with E. coli (Ec); over 32 mg/L in the test with P. aeruginosa (Pa); over 32 mg/L in the test with A. baumannii (Ab); under 8 mg/L in the test on E. faecalis (Ef). The IC50 was under 0.5 µM with E. coli S30 extract and at least 1 µM in test [1].
`CC(C)(N)C(=O)N1CCN(C(=O)Nc2ccn(C3=CCC(CN[C@H]4CC[C@H](N)CC4)CC3)c(=O)n2)CC1` (single isomer, unassigned) [Compound 39, trans-4-(2-Amino-2-methylpropanoyl)-N-(1-(4-(((4-aminocyclohexyl)amino)methyl)cyclohex-1-en-1-yl)-2-oxo-1,2-dihydropyrimidin-4-yl)piperazine-1-carboxamide hydrochloride salt]: the MIC in the test on S. aureus (Sa) is under 8 mg/L; in the test with E. coli (Ec), under 8 mg/L; with P. aeruginosa (Pa), over 32 mg/L; in the test on A. baumannii (Ab), over 32 mg/L; with E. faecalis (Ef) it was under 8 mg/L. The results for the IC50 (in the test on E. coli S30 extract; in test [1]) were under 0.5 µM and at least 1 µM, respectively.
Take `CCN(CC1CC=C(n2ccc(NC(=O)N3CCN(C(=O)C(C)(C)N)CC3)nc2=O)CC1)[C@H]1CC[C@H](N)CC1` (stereo partly drawn) [Compound 31, trans-4-(2-Amino-2-methylpropanoyl)-N-(1-(4-(((4-aminocyclohexyl)(ethyl)amino)methyl)cyclohex-1-en-1-yl)-2-oxo-1,2-dihydropyrimidin-4-yl)piperazine-1-carboxamide hydrochloride salt]: the minimum inhibitory concentration (MIC) was under 8 mg/L in the test with S. aureus (Sa), under 8 mg/L in the test with E. coli (Ec), over 32 mg/L in the test on P. aeruginosa (Pa) and under 8 mg/L with E. faecalis (Ef). Also, the IC50 was under 0.5 µM in the test with E. coli S30 extract and at least 1 µM in test [1].
Regarding `CC(C)(N)C(=O)N1CCN(C(=O)Nc2ccn([C@H]3CC[C@H](CN(CCF)[C@H]4CC[C@H](N)CC4)CC3)c(=O)n2)CC1` [Compound 49, trans-trans-4-(2-amino-2-methylpropanoyl)-N-(1-(4-(((4-aminocyclohexyl)(2-fluoroethyl)amino)methyl)cyclohexyl)-2-oxo-1,2-dihydropyrimidin-4-yl)piperazine-1-carboxamide hydrochloride salt], the MIC is under 8 mg/L in the test on S. aureus (Sa), under 8 mg/L with E. coli (Ec), over 32 mg/L with A. baumannii (Ab) and 8 to 32 mg/L with E. faecalis (Ef). The IC50 is under 0.5 µM in the test with E. coli S30 extract and at least 1 µM in test [1].
